Measured values taken from patent EP0569777A2 (Bayer Corporation, priority 1992, dated 1993).
Where a SMILES comes first, the peptide text is derived from it. [ ]: non-standard residue; d: D form. The star is where a group is joined. Sta = CC(C)C[C@H](N)[C@@H](O)CC(=O)O; Isovaleryl = CC(C)CC(=O)*

Molecular target: human brain P-2 enzyme (peak B), aspartic protease identified as cathepsin D (Homo sapiens, UniProt P07339)
Assay: Immunoblot assay of holo-APP 695 degradation by P-2 enzyme (peak B, 15-25 kDa gel filtration region)
Assay type: biochemical
Settings: 100 uM pepstatin A in DMSO; P-2 enzyme 2.54 ug/ml, APP 168 nM, Mes buffer pH 6.5, 26 hr, 37°C; Figure 7
Procedure: Reactions (32 ul) were initiated at 37°C by APP addition to achieve the following initial component conditions: P-2 enzyme (2.54 ug/ml) fraction from the 15-25 kDa region of gel filtration (Figure 6); APP (168 nM), in 96 mM Mes buffer pH 6.5. Reactions were terminated after 26 hr by addition of 15 ul of 3X sample buffer, and subject to immunoblot analysis using a 1/1000 dilution of the rabbit polyclonal antiserum to the APP C-terminus. […] The effect of incubation of APP for 0hr (lanes 2 and 30) and 26 hr (lanes 3 and 28) are also shown. Lanes 6, 10, 14, 17, 21 and 25 contained enzyme alone. Lanes 4, 8, 12, 19, 23, and […] contained the C-100 standard. Prestained molecular weight markers are present in lanes 1 and 29. The 18 and 28 kDa C-terminal product fragments are located with arrows.
ii) Solubilization. […] Absorbance of column effluent was monitored at 280 nm using a Pharmacia UV-M detector and a Kippen-zonen chart recorder. […] In the initial studies, eluted fractions were monitored for A280 nm, total protein (Bradford assay), and peptidase activity (as decsribed in Examples 2 and 3). […] Fractions were monitored for A 280 nm, total protein (Bradford assay), peptidase activity, and activity for C-terminal processing of recombinant APP. […]

human brain P-2 enzyme (peak B), aspartic protease identified as cathepsin D, sequence (P07339 with tags, fused parts or gaps): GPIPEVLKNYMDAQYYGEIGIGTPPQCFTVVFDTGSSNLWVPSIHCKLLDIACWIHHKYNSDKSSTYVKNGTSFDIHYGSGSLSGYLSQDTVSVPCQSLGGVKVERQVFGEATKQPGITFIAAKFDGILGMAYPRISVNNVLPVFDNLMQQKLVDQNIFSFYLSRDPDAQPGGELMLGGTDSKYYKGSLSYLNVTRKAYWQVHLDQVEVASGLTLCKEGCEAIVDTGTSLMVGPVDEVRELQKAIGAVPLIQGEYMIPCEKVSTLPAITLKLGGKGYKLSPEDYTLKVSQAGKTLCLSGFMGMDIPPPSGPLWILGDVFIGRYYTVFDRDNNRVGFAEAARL

**Q.** `CC(C)CC(=O)N[C@H](C(=O)N[C@H](C(=O)N[C@@H](CC(C)C)[C@@H](O)CC(=O)N[C@@H](C)C(=O)N[C@@H](CC(C)C)[C@@H](O)CC(=O)O)C(C)C)C(C)C` [pepstatin A] (Isovaleryl-VV[Sta]A[Sta]-OH) was tested. Which “Inhibition of peak B APP degrading activity” value did it give?
**A.** Its value is “quantitative inhibition”.
